The values that follow come from patent US20230355773A1, “[…] DRUG CONJUGATES” (P.I.F. Entrepreneurs Ltd., priority 2020, published 2023).

For data set [1] the following is noted: fasted mice. Here is the method:
CC57BL/6 mice aged approximately 9 weeks were weighed and acclimated to facility conditions. Animals were assigned to 3 treatment groups based on their body weights, creating homogenous groups of 5 mice in each group. After fasting, blood glucose of levels of mice were tested at time 0, at which time the test drug was administered, then subsequently at 30, 60, 90 and 120 minutes post administration, using blood glucose test strips.

Data set [2] deals with activated macrophages (THP1 monocytes transformed with PMA, infected with Leishmania donovani). The settings on record: for activated macrophage survival: 0.1, 1 and 10 µg/ml, 12-14 hours of incubation, FIG. 1. Here is the method:
A macrophage killing assay was performed in order to determine potential of conjugates described herein for treatment of macrophage-related diseases. THP1 monocytes were transformed into macrophages for using phorbol myristate acetate (PMA). […] The data shown in FIG. 1 represents macrophage survival percent after 12-14 hours of incubation with conjugates. […] In the figure, series 1 represents control macrophages which were not infected. Series 2, 3 and 4 represent the 0.1, 1 and 10 µg/ml dosages. The values shown in these series represented number of cells, as normalized to control, non-infected macrophages.
(§1) Media used for macrophage assay: RPMI with 10% FCS, supplemented with pencillin streptomycin and glutamine. The compounds were prepared in phosphate buffered saline with pH adjusted to 7.6 and were used immediately after preparation.
Infection of macrophage: The macrophages were infected with 5x times with Leishmania donovani - for a density of 1x10^5 monocytes transformed to macrophage, the infection density is 5 x 10^5 L.donovani.
(§2) The experiment was performed according to the following schedule: • Monocyte to macrophage transformation: 0 to 48 hours • Macrophage Infection with Leishmania: 48-84 hours • Treatment with compound: 84 - 96 hours • Plate used for assay: Microscopy compatible glass bottom plate -24 wells.
The macrophages that were alive were counted in five different fields of the wells for different concentration and the average count was used for the assay. Based on the count of the control macrophages, the % was adjusted.

For data set [3], the system named is non-infected macrophages (THP1 monocytes transformed with PMA). The settings on record: 10 µg/ml, live imaging, 8 hours, FIG. 2. The procedure: A macrophage killing assay was performed in order to determine potential of conjugates described herein for treatment of macrophage-related diseases. THP1 monocytes were transformed into macrophages for using phorbol myristate acetate (PMA). […] The data shown in FIG. […] In the figure, series 1 represents control macrophages which were not infected. Series 2, 3 and 4 represent the 0.1, 1 and 10 µg/ml dosages. The values shown in these series represented number of cells, as normalized to control, non-infected macrophages.
as §1, §2

A short description of data set [4]: in vivo. As to conditions: female, ICR, mouse.
In data set [5] the test system is neuroinflammatory response induced by LPS. The settings on record: I5 100 µg per mouse s.c. The procedure: 120 mice (female C57BL/6) mice approximately 6 weeks old were assigned into groups based on body weight, creating homogenous groups, and acclimated to facility conditions over 5 days.
A neuroinflammatory response was induced in all mice by intraperitoneal administration of 5 mg/kg of LPS. […] Group 2: dexamethasone at […]. Group 3: Vehicle. Test items were administered at the following time points: 30 minutes before LPS injection, 2 hours post-LPS injection and 10 hours post LPS injection (where applicable). 10 animals from each group were sacrificed at the following time points: 4, 8, 24 and 48 hours post LPS administration. Brains were collected and preserved in buffered 4% formaldehyde. Bronchoalveolar lavage fluid was extract from lungs of all animals.

The subject of data set [6] is cytokines levels after LPS induction. The settings on record: 100 µg per mouse s.c.
For data set [7] the following is noted: female, ICR, mouse, in vivo.
Where [8] appears, read: plasma, parameters used for estimating t½.
Where [9] appears, read: plasma, single IV, I5 200 mg/kg, dexamethasone sodium phosphate 40 mg/kg.
Setting [10] is: 24 hours following LPS induction.

SMILES strings stand for the structures. Read-outs that look alike come from different tables or passages of the source.

The half-life is the time in which the quantity being followed falls by half. By Tmax is commonly meant the time from dosing to the highest level. The term clearance denotes a measure of how efficiently the substance is removed, as volume per time. The low end stands for inefficient removal, the high end for efficient removal. By Vd is commonly meant a proportionality between amount in the body and measured concentration, not a real space.

With `C[C@@H]1C[C@H]2[C@@H]3CCC4=CC(=O)C=C[C@]4(C)[C@@]3(F)C(O)C[C@]2(C)[C@@]1(O)C(=O)CO` (stereo partly shown) [dexamethasone, reference compound], the “increase of blood sugar levels (change from baseline)” value in data set [1] (dexamethasone 65 mg (so in the source), 30 to 120 minutes post administration) is given as “about 15%”.
On to `CC(CC(=O)N/N=C(\CO)[C@@]1(O)[C@H](C)C[C@H]2[C@@H]3CCC4=CC(=O)C=C[C@]4(C)[C@@]3(F)C(O)C[C@@]21C)O[C@H]1OC(CO)[C@@H](O)C(O)C1O` (stereo partly shown) [MD4], for which, in data set [2], the activated macrophage survival result is “particularly effective”.
`C[C@@H]1C[C@H]2[C@@H]3CCC4=C/C(=N/OCCCO[C@H]5O[C@H](CO)[C@@H](O)[C@H](O)[C@@H]5O)C=C[C@]4(C)[C@@]3(F)[C@@H](O)C[C@]2(C)[C@@]1(O)C(=O)CO` [Compound I5, 1-((8S,9R,10S,11S,13S,14S,16R,17R,E)-9-Fluoro-11,17-Dihydroxy-10,13,16-Trimethyl-3-((3-(((2S,3S,4S,5S,6R)-3,4,5–Trihydroxy-6-(Hydroxymethyl)Tetrahydro-2H-Pyran-2-yl)oxy)propoxy)imino)-6,7,8,9,10,11,12,13,14,15,16,17-Dodecahydro-3H-cyclopenta[a]phenanthren-17-yl)-2-Hydroxyethan-1-One] yielded a relative systemic exposure (200 mg Compound I5 compared to 40 mg Dexamethasone) of 4.2%. Moreover, under “mice after IV dosing”, the “elimination curve in plasma” value is recorded as “two-phase elimination curve”. Besides, the AUC%Extrap under setting [8] is 0.403%. For the same compound, the Lambda z under setting [8] was 0.164 h⁻¹. Moreover, the AUCINF/Dose (plasma, single IV) is 93.4 h^∗ng/mL/mg/kg. Besides, the “Exprel, relative systemic exposure [AUCinf/dose (Compound I5)/AUCinf/dose (Dexamethasone)] x 100” value (plasma, single IV, I5 200 mg/kg vs dexamethasone 40 mg/kg) is on record as 4.2%. The compound further showed a CL under setting [9] of 178.33 mL/min/kg. Besides, the Tlast under setting [9] came to 24.0 h. Further, the “blood glucose relative to baseline” value in data set [1] (100 µg per mouse, 30 to 120 minutes post-administration) was “not increased above baseline”; in data set [1] (2500 µg per mouse (25-fold molar equivalent of 65 µg dexamethasone)), “no elevation of blood glucose level”. Further, in data set [3], the “effect on macrophages not activated by infection” value is “remained unchanged”. In addition, the half-life was 4.23 h in data set [4] (T½, plasma, table Parameters used for estimating t½ in plasma); 4.23 h in data set [4] (iv, T½, plasma, single IV, I5 200 mg/kg, dexamethasone sodium phosphate 40 mg/kg, table PK parameters in plasma); about 4.2 h in data set [4] (iv, terminal elimination half-life in plasma, mice after IV dosing). Also, the time of peak concentration (Tmax) in data set [4] (iv) amounted to 5 min. Besides, in data set [4] (iv), the clearance was 178 mL/min/kg. The volume of distribution (Vd) in data set [4] (iv, Vss, plasma, single IV, I5 200 mg/kg, dexamethasone sodium phosphate 40 mg/kg) is 12.1 L/kg; in data set [4] (iv, Vz, plasma, single IV, I5 200 mg/kg, dexamethasone sodium phosphate 40 mg/kg), 65.3 L/kg; in data set [4] (iv, distribution volume, Vss, plasma, IV), 12.1 L/kg. Also, the “Clinical score - Appearance” value in data set [5] (24 Hr. following LPS induction, vs groups 2 and 3) is listed as “best clinical score”. Besides, in data set [5] (setting [10]), the “Clinical score - Eye condition” value was “best clinical score”. Further, in data set [5] (setting [10]), the “Clinical score - Response to stimulus” value was “best clinical score”. The Total clinical score entry in data set [5] (compared to groups 2 and 3) is “best clinical score”. In data set [6] (LPS model), the “blood-brain barrier penetration, evidenced by CNS cytokine levels” value is listed as “able to penetrate the blood-brain barrier”. Also, the “Cytokines levels in Bronchoalveolar lavage fluid” value in data set [6] (IL-1 a and MCP1 (4 Hr. post LPS), MCP1 (8 Hr. post LPS)) is recorded as “immunomodulatory effect”. The “Cytokines levels in brains” value in data set [6] (IL-2 (4 and 8 Hr. post LPS), IL-10 (8 Hr.), VEGF a (8 and 24 Hr.), vs groups 2 and 3) is “immunomodulatory effect”. Further, in data set [6] (IL-17 and RANTES (4 Hr. post LPS), LIF (8 Hr. post LPS)), the “Cytokines levels in serum” value is reported as “immunomodulatory effect”. Moreover, the “Concentration in brain (CSF) (pooled)” value in data set [7] is given as 29.4 ng/mL. In data set [7] (iv), the “pooled CSF levels detected” value was 6.86 to 29.4 ng/mL. Further, in data set [7] (iv, 200 mg/kg), the “CSF levels as fold the LLOQ (5.00 ng/mL)” value is 1.4-5.9 fold. Further, in data set [2] (10 µg/ml, live imaging, FIG. 2), the “time to killing of activated macrophages” value is at most 8 h. Moreover, in data set [2], the activated macrophage survival result is “particularly effective”.
